{
  "source": "paper PMC4936186",
  "about": "(Journal of medicinal chemistry, 2015)",
  "key": {"HIV-1 gp120": {"test_system": "HIV-1 gp120", "settings": "for Activity in SPR competition binding to gp120 (in words): dual receptor site (sCD4 and 17b) inhibition"}, "trypsin": {"test_system": "trypsin", "settings": "37 °C, 5-hour incubation"}},
  "note": "Starred links: 1 amine or outer side, 2 acyl side, 3 side chain; linkers in the order of their positions; H or OH if unused. Positions of bridges follow the written chain, without caps; N, C: chain ends. Non-standard residues stand in square brackets, D forms with d. Residues, ends and D or L forms follow the SMILES beside them. X1 = O=C([C@@H]1C[C@H](n2cc(C3=CC=C[CH]3[Fe][CH]3C=CC=C3)nn2)CN1[*:1])[*:2]",
  "data": [
    {"molecule": "CC[C@H](C)[C@@H]1NC(=O)[C@H](CC(N)=O)NC(=O)[C@@H](N)CC(=O)NCCCC[C@@H](C(N)=O)NC(=O)[C@H](Cc2c[nH]c3ccccc23)NC(=O)[C@@H]2C[C@H](n3cc(C4=CC=C[CH]4[Fe][CH]4C=CC=C4)nn3)CN2C1=O", "note": "(stereo partly shown) [Compound 9] (H-DNI[X1]WK-NH2; lactam 1-6; C-terminus assumed)", "values": [
      {"measurement": "Activity in SPR competition binding to gp120 (in words)", "setting": "HIV-1 gp120", "result": "enhanced dual receptor site antagonizing activities compared to their non-ferrocene analogues"}
    ]},
    {"molecule": "CC[C@H](C)[C@@H]1NC(=O)[C@H](CC(N)=O)NC(=O)[C@@H](N)CC(=O)NCCCC[C@@H](C(N)=O)NC(=O)[C@H](Cc2c[nH]c3ccccc23)NC(=O)[C@@H]2C[C@H](n3cc(CCc4ccccc4)nn3)CN2C1=O", "note": "[Compound 7]", "values": [
      {"measurement": "Enhancement of activity of macrocycle 7 vs 2", "setting": "HIV-1 gp120; SPR, shorter green linker (Asp instead of Glu)", "result": "almost two-fold enhanced activity"},
      {"measurement": "Stability to trypsin (in words)", "setting": "trypsin", "result": "completely resistant"},
      {"measurement": "Stability to chymotrypsin (in words)", "setting": "chymotrypsin; 37 °C, 5-hour incubation", "result": "completely resistant"},
      {"measurement": "Stability to chymotrypsin (in words), 30 min", "setting": "chymotrypsin; 37 °C, 30 minute incubation", "result": "almost unchanged"},
      {"measurement": "Intactness after chymotrypsin digestion (in words), 40 h", "setting": "chymotrypsin; 40 h incubation, HPLC and ESI-MS", "result": "remained intact"}
    ]},
    {"molecule": "CC[C@H](C)[C@H](N)C(=O)N[C@H]1CCC(=O)NCCCC[C@@H](C(N)=O)NC(=O)[C@H](Cc2c[nH]c3ccccc23)NC(=O)[C@@H]2C[C@H](n3cc(C4=CC=C[CH]4[Fe][CH]4C=CC=C4)nn3)CN2C(=O)[C@H]([C@@H](C)CC)NC(=O)[C@H](CC(N)=O)NC1=O", "note": "(stereo partly shown) [Compound 4] (H-IENI[X1]WK-NH2; lactam 2-7; N-terminus and C-terminus assumed)", "values": [
      {"measurement": "Activity in SPR competition binding to gp120 (in words)", "setting": "HIV-1 gp120", "result": "enhanced dual receptor site antagonizing activities compared to their non-ferrocene analogues"}
    ]}
  ]
}
